Results on six compounds are retold here after patent US11970511B2, “Tetrahydropyran-based thiodisaccharide mimics as Galectin-3 inhibitors” (BRISTOL-MYERS SQUIBB COMPANY, priority 2018, dated 2024).

pIC50: −log10 of the molar value.

The target of the experiment is His-tagged recombinant human Gal-3 (hGal-3) (Homo sapiens, UniProt P17931). In words: Gal-3 HTRF assay: His-tagged hGal-3 binding to B-ASF, Anti-His terbium antibody / Streptavidin d2 detection.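 Further: compound preincubated 30 min with hGal-3, then 1 h with B-ASF, DMSO wells with B-ASF serving as positive control and those lacking B-ASF as negative control.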 As to conditions: 15 nM hGal-3, 15 nM B-ASF, three replicates, room temperature.
Sequence of His-tagged recombinant human Gal-3 (hGal-3) (P17931 whole entry): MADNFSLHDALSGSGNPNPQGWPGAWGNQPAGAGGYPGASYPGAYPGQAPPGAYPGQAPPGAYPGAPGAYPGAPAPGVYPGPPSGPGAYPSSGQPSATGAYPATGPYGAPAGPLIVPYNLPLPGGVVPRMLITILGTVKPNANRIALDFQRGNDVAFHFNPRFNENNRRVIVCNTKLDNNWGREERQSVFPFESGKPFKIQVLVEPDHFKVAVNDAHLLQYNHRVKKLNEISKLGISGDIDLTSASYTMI
Usually pIC50 stands for the IC50 on a negative log10 scale, so that one unit is a factor of ten. Consider `COc1ncc(-c2cn([C@H]3COC[C@@H](S[C@@H]4O[C@H](CO)[C@H](O)[C@H](n5cc(-c6cc(F)c(F)c(F)c6)nn5)[C@H]4OCC(=O)N4CCOCC4)[C@@H]3O)nn2)cn1` [Example 31, 2-(((2S,3R,4S,5R,6R)-5-hydroxy-2-(((3R,4R,5S)-4-hydroxy-5-(4-(2-methoxypyrimidin-5-yl)-1H-1,2,3-triazol-1-yl)tetrahydro-2H-pyran-3-yl)thio)-6-(hydroxymethyl)-4-(4-(3,4,5-trifluorophenyl)-1H-1,2,3-triazol-1-yl)tetrahydro-2H-pyran-3-yl)oxy)-1-morpholinoethan-1-one], for which the pIC50 was 7.89. For the compound `COc1ncc(-c2cn(C3COCC(SC4OC(CO)C(O)C(n5cc(-c6cc(F)c(F)c(F)c6)nn5)C4OCC(=O)N4CCS(=O)(=O)CC4)C3O)nn2)cn1` [Example 33, 1-(1,1-dioxidothiomorpholino)-2-(((2S,3R,4S,5R,6R)-5-hydroxy-2-(((3R,4R,5S)-4-hydroxy-5-(4-(2-methoxypyrimidin-5-yl)-1-1,2,3-triazol-1-yl)tetrahydro-2H-pyran-3-yl)thio)-6-(hydroxymethyl)-4-(4-(3,4,5-trifluorophenyl)-1H-1,2,3-triazol-1-yl)tetrahydro-2H-pyran-3-yl)oxy)ethan-1-one], the negative-log IC50 (pIC50) was 7.92. Consider `COc1ncc(-c2cn([C@H]3COC[C@@H](S[C@@H]4O[C@H](CO)[C@H](O)[C@H](n5cc(-c6cc(F)c(F)c(F)c6)nn5)[C@H]4OCC(=O)N4CC(O)C4)[C@@H]3O)nn2)cn1` [Example 34, 2-(((2S,3R,4S,5R,6R)-5-hydroxy-2-(((3R,4R,5S)-4-hydroxy-5-(4-(2-methoxypyrimidin-5-yl)-1H-1,2,3-triazol-1-yl)tetrahydro-2H-pyran-3-yl)thio)-6-(hydroxymethyl)-4-(4-(3,4,5-trifluorophenyl)-1H-1,2,3-triazol-1-yl)tetrahydro-2H-pyran-3-yl)oxy)-1-(3-hydroxyazetidin-1-yl)ethan-1-one], for which the pIC50 is 7.62. The result for `COc1ncc(-c2cn([C@H]3COC[C@@H](S[C@@H]4O[C@H](CO)[C@H](O)[C@H](n5cc(-c6cc(F)c(F)c(F)c6)nn5)[C@H]4OCC(=O)N4CCC4)[C@@H]3O)nn2)cn1` [Example 35, 1-(azetidin-1-yl)-2-(((2S,3R,4S,5R,6R)-5-hydroxy-2-(((3R,4R,5S)-4-hydroxy-5-(4-(2-methoxypyrimidin-5-yl)-1H-1,2,3-triazol-1-yl)tetrahydro-2H-pyran-3-yl)thio)-6-(hydroxymethyl)-4-(4-(3,4,5-trifluorophenyl)-1H-1,2,3-triazol-1-yl)tetrahydro-2H-pyran-3-yl)oxy)ethan-1-one] reads 7.49; that for `CO[C@@H]1[C@@H](n2cc(-c3cccnc3)nn2)[C@@H](O)[C@@H](CO)O[C@H]1S[C@@H]1COC[C@H](n2cc(-c3ccccc3)nn2)[C@H]1O` [Example A1, (2R,3R,4S,5R,6S)-6-(((3R,4R,5S)-4-hydroxy-5-(4-phenyl-1H-1,2,3-triazol-1-yl)tetrahydro-2H-pyran-3-yl)thio)-2-(hydroxymethyl)-5-methoxy-4-(4-(pyridin-3-yl)-1H-1,2,3-triazol-1-yl)tetrahydro-2H-pyran-3-ol], 5.96.

Take `CO[C@@H]1[C@@H](n2cc(-c3ccncc3)nn2)[C@@H](O)[C@@H](CO)O[C@H]1S[C@@H]1COC[C@H](n2cc(-c3ccccc3)nn2)[C@H]1O` [Example A2, (2R,3R,4S,5R,6S)-6-(((3R,4R,5S)-4-hydroxy-5-(4-phenyl-1H-1,2,3-triazol-1-yl)tetrahydro-2H-pyran-3-yl)thio)-2-(hydroxymethyl)-5-methoxy-4-(4-(pyridin-4-yl)-1H-1,2,3-triazol-1-yl)tetrahydro-2H-pyran-3-ol]: the pIC50 was 5.96.
